Experimental data: ChEMBL document CHEMBL1134122, “Substituted indole-5-carboxamides and -acetamides as potent nonpeptide GnRH receptor antagonists” (Bioorg Med Chem Lett, 2001)

How the values were obtained:
[1] = target: T1, Gonadotropin-releasing hormone receptor (Rattus norvegicus, UniProt P30969); experiment: Inhibition GnRH-stimulated luteinizing hormone (LH) release from rat pituitary cells; format: functional, cell-based, Pituitary gland cell
T1 sequence (P30969 whole entry): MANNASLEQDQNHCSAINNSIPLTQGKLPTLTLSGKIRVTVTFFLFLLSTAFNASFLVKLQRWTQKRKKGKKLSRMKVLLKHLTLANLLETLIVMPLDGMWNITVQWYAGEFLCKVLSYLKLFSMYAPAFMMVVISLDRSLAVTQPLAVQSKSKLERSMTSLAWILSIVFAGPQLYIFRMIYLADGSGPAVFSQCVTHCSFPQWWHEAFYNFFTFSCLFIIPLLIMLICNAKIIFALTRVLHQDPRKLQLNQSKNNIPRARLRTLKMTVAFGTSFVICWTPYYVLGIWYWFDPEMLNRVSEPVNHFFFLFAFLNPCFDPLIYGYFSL

[2] = target: T1, Gonadotropin-releasing hormone receptor; experiment: Inhibition of [125I]buserelin binding to rat pituitary Gonadotropin-releasing hormone receptor, in the presence of 0.1% bovine serum albumin.
[3] = target: T1, Gonadotropin-releasing hormone receptor; experiment: Inhibition of [125I]buserelin binding to rat pituitary Gonadotropin-releasing hormone receptor, in the absence of bovine serum albumin (BSA)

IC50 [1] [nM]	IC50 [2] [nM]	IC50 [3] [nM]	SMILES
70	0.4	5	CCCN(CCC)C(=O)C(C)(C)c1ccc2[nH]c(-c3cc(C)cc(C)c3)c(CCNCCCCc3ccc(NS(C)(=O)=O)cc3)c2c1
> 6200		14	CCOC(=O)c1ccc2[nH]c(-c3cc(C)cc(C)c3)c(CCNCCCCc3ccc(NS(C)(=O)=O)cc3)c2c1
140		5	CCCN(CCC)C(=O)c1ccc2[nH]c(-c3cc(C)cc(C)c3)c(CCNCCCCc3ccc(NS(C)(=O)=O)cc3)c2c1
540	0.5	6	CCN(CC)C(=O)c1ccc2[nH]c(-c3cc(C)cc(C)c3)c(CCNCCCCc3ccc(O)cc3)c2c1
270	0.2	2	CCN(CC)C(=O)c1ccc2[nH]c(-c3cc(C)cc(C)c3)c(CCNCCCCc3ccc(NS(C)(=O)=O)cc3)c2c1
510	0.2	4	Cc1cc(C)cc(-c2[nH]c3ccc(C(=O)N4CCCC4)cc3c2CCNCCCCc2ccc(NS(C)(=O)=O)cc2)c1
120		3	CCN(C(=O)c1ccc2[nH]c(-c3cc(C)cc(C)c3)c(CCNCCCCc3ccc(NS(C)(=O)=O)cc3)c2c1)C(C)C
95	0.1	3	Cc1cc(C)cc(-c2[nH]c3ccc(CC(=O)N4C(C)CCC4C)cc3c2CCNCCCCc2ccc(NS(C)(=O)=O)cc2)c1 (stereo not given)
2000		2	CCOC(=O)Cc1ccc2[nH]c(-c3cc(C)cc(C)c3)c(CCNCCCCc3ccc(NS(C)(=O)=O)cc3)c2c1
240		4	CCCCN(CC)C(=O)c1ccc2[nH]c(-c3cc(C)cc(C)c3)c(CCNCCCCc3ccc(NS(C)(=O)=O)cc3)c2c1
32	0.4		Cc1cc(C)cc(-c2[nH]c3ccc(C(=O)N(CC(C)C)CC(C)C)cc3c2CCNCCCCc2ccc(NS(C)(=O)=O)cc2)c1
150	0.3	3	CCOC(=O)C(C)(C)c1ccc2[nH]c(-c3cc(C)cc(C)c3)c(CCNCCCCc3ccc(NS(C)(=O)=O)cc3)c2c1
820		5	Cc1cc(C)cc(-c2[nH]c3ccc(C(=O)N(C)C)cc3c2CCNCCCCc2ccc(O)cc2)c1
690		2	Cc1cc(C)cc(-c2[nH]c3ccc(C(=O)N(C)C)cc3c2CCNCCCCc2ccc(NS(C)(=O)=O)cc2)c1
> 6200			Cc1cc(C)cc(-c2[nH]c3ccccc3c2CCNCCCCc2ccc(O)cc2)c1
130	0.2	2	CCN(CC)C(=O)C(C)c1ccc2[nH]c(-c3cc(C)cc(C)c3)c(CCNCCCCc3ccc(NS(C)(=O)=O)cc3)c2c1 (stereo not given)

Second part, the compound before the results:

SMILES	IC50 [1] [nM]	IC50 [2] [nM]	IC50 [3] [nM]
CCN(CC)C(=O)Cc1ccc2[nH]c(-c3cc(C)cc(C)c3)c(CCNCCCCc3ccc(NS(C)(=O)=O)cc3)c2c1	130	0.2	3
CCNC(=O)c1ccc2[nH]c(-c3cc(C)cc(C)c3)c(CCNCCCCc3ccc(NS(C)(=O)=O)cc3)c2c1	2400		6
Cc1cc(C)cc(-c2[nH]c3ccc(C(C)(C)C(=O)N4C(C)CCC4C)cc3c2CCNCCCCc2ccc(NS(C)(=O)=O)cc2)c1 (stereo not given)	65	0.2	3
Cc1cc(C)cc(-c2[nH]c3ccc(C(=O)N(CC(C)C)CC(C)C)cc3c2CCNCCCCc2ccc(O)cc2)c1	380		
Cc1cc(C)cc(-c2[nH]c3ccc(C(=O)N4CCOCC4)cc3c2CCNCCCCc2ccc(NS(C)(=O)=O)cc2)c1	400	0.2	2
CCOC(=O)c1ccc2[nH]c(-c3cc(C)cc(C)c3)c(CCNCCCCc3ccc(O)cc3)c2c1			32
Cc1cc(C)cc(-c2[nH]c3ccc(C(C)(C)C(=O)N4CCCC4)cc3c2CCNCCCCc2ccc(NS(C)(=O)=O)cc2)c1	40	0.2	2
Cc1cc(C)cc(-c2[nH]c3ccc(C(=O)N4CCOCC4)cc3c2CCNCCCCc2ccc(O)cc2)c1	800		4
CCN(C(=O)c1ccc2[nH]c(-c3cc(C)cc(C)c3)c(CCNCCCCc3ccc(NS(C)(=O)=O)cc3)c2c1)C(C)(C)C	660	0.8	
Cc1cc(C)cc(-c2[nH]c3ccc(C(=O)N4C5CCC4CC5)cc3c2CCNCCCCc2ccc(NS(C)(=O)=O)cc2)c1	210	0.4	3
CCOC(=O)C(C)c1ccc2[nH]c(-c3cc(C)cc(C)c3)c(CCNCCCCc3ccc(NS(C)(=O)=O)cc3)c2c1 (stereo not given)	610	0.5	4
Cc1cc(C)cc(-c2[nH]c3ccc(C(C)(C)C(=O)N4CCOCC4)cc3c2CCNCCCCc2ccc(NS(C)(=O)=O)cc2)c1	81	0.12	
Cc1cc(C)cc(-c2[nH]c3ccc(OC(=O)N(C)C)cc3c2CCNCCCCc2ccc(O)cc2)c1			3
Cc1cc(C)cc(-c2[nH]c3ccc(C(=O)N4CCCCC4)cc3c2CCNCCCCc2ccc(NS(C)(=O)=O)cc2)c1	220		2
Cc1cc(C)cc(-c2[nH]c3ccc(C(=O)N(C(C)C)C(C)C)cc3c2CCNCCCCc2ccc(NS(C)(=O)=O)cc2)c1	72	0.3	3
Cc1cc(C)cc(-c2[nH]c3ccc(C(C)(C)C(=O)N(C)C)cc3c2CCNCCCCc2ccc(NS(C)(=O)=O)cc2)c1	160	0.1	3
Cc1cc(C)cc(-c2[nH]c3ccc(C(=O)N4C(C)CCC4C)cc3c2CCNCCCCc2ccc(NS(C)(=O)=O)cc2)c1 (stereo not given)	95	0.2	3
Cc1cc(C)cc(-c2[nH]c3ccc(C(=O)NCc4ccccc4)cc3c2CCNCCCCc2ccc(O)cc2)c1			24
CCN(CC)C(=O)C(C)(C)c1ccc2[nH]c(-c3cc(C)cc(C)c3)c(CCNCCCCc3ccc(NS(C)(=O)=O)cc3)c2c1	42	0.2	2
Cc1cc(C)cc(-c2[nH]c3ccc(CC(=O)N(C)C)cc3c2CCNCCCCc2ccc(NS(C)(=O)=O)cc2)c1	320	0.1	2
